From US20240350522A1, “HYGROMYCIN A FOR TREATMENT OF DISEASES AND INFECTIONS” (FLIGHTPATH BIOSCIENCES, INC., priority 2021, published 2024)
Where “and” joins values, the source holds several entries; their conditions need not be identical. Equal entries are not always repeated. Where two headings read alike, the source gives them in different places.

Assays:
F. nucleatum nucleatum = assay: Kirby-Bauer diffusion assay; format: cell-based; conditions: Fusobacterium nucleatum, mean (SEM), read-out: size of zone inhibition (mm); for zone of inhibition at 10 µg/disc: Hyg A 10 μg per disc; for zone of inhibition at 20 µg/disc / zone of inhibition at 40 µg/disc: strain 25586; for zone of inhibition at 20 µg/disc: Hyg A 20 μg per disc; for zone of inhibition at 40 µg/disc: Hyg A 40 μg per disc
Protocol: (§1) Three representatives of 6 subspecies of Fusobacterium nucleatum (F. nucleatum) for a total of 18 strains were tested in the experiment. The sub species and strains are described in Table 2.
(§2) All strains were verified by 16S V3/V6 sequence analysis prior to use. The methods described herein were performed in an anaerobic chamber at 37° C. All media and plates were degassed prior to use.
(§3) Hygromycin A (Hyg A) discs were prepared by solubilizing Hyg A in distilled water and sterile filtered. Clindamycin was used as a positive control. Defined amounts of hygromycin A (40, 20, 10 or 5 micrograms), clindamycin (2 micrograms) or sterile distilled water were absorbed onto Kirby-Bauer discs in a biosafety cabinet.
(§4) An overnight culture was grown in Wilkins-Chalgren (WC) broth and back-diluted 1:10 in fresh broth. When an OD 600 reading reached 0.5, 300 μL of the log phase culture was plated onto WC agar plates. The plates were sectioned into quadrants and a Kirby-Bauer (KB) disc impregnated with a defined amount of hygromycin A was placed in each quadrant. Plates were prepared thus in triplicate and the four amounts of hygromycin A were 40, 20 10 and 5 micrograms. The same volume of culture was spread on fourth plate sectioned into six sections for three positive and three negative controls. KB discs with water served as negative controls and KB discs impregnated with 2 micrograms of clindamycin served as positive controls. […] Table 3, Table 4, Table 5, Table 6, Table 7, Table 8 show the mean size of zone inhibitions for each of the subspecies tested using increasing concentrations of hygromycin A where the standard error of mean is represented in parenthesis.
(§5) The amount of hygromycin A was plotted against the size of the zone of inhibition for each strain tested.

[1] = tested on: F. nucleatum periodonticum; assay: Kirby-Bauer diffusion assay; format: cell-based; conditions: Fusobacterium nucleatum, mean (SEM), read-out: size of zone inhibition (mm); for zone of inhibition at 5 µg/disc: Hyg A 5 μg per disc; for zone of inhibition at 10 µg/disc: Hyg A 10 μg per disc; for zone of inhibition at 20 µg/disc: Hyg A 20 μg per disc; for zone of inhibition at 40 µg/disc: Hyg A 40 μg per disc
Protocol: as §1, §2, §3, §4, §5

F. nucleatum polymorphum = assay: Kirby-Bauer diffusion assay; format: cell-based; conditions: Fusobacterium nucleatum, mean (SEM), read-out: size of zone inhibition (mm); for zone of inhibition at 5 µg/disc: Hyg A 5 μg per disc; for zone of inhibition at 10 µg/disc: Hyg A 10 μg per disc; for zone of inhibition at 20 µg/disc: Hyg A 20 μg per disc; for zone of inhibition at 40 µg/disc: Hyg A 40 μg per disc
Protocol: as §1, §2, §3, §4, §5

[2] = tested on: Treponema pallidum pallidum SS14 strain; assay: T. pallidum susceptibility assay, co-culture with Sf1Ep cells, tp0574 (T47) qPCR after 7 days; format: cell-based; conditions: for Mean T47 copies/μL, Average / Mean T47 copies/μL, experimental values: 7 days; for Mean T47 copies/μL, Average: average of 8 replicates; for Mean T47 copies/μL, experimental values: replicate wells
SF1Ep cells = assay: Cytotoxicity assay, Cell Proliferation Reagent WST-1; format: cell-based, rabbit; conditions: day 7; any concentration tested (0.03-3.84 μg/mL)
Protocol: Cytotoxicity assay was performed according to the Cell Proliferation Reagent WST-1 protocol (Attached; Roche, Basel, Switzerland). Absorbance was measured after 1 hour incubation with the reagent.

## CC(=O)[C@H]1O[C@@H](Oc2ccc(/C=C(\C)C(=O)N[C@@H]3[C@H](O)[C@@H](O)[C@H]4OCO[C@H]4[C@@H]3O)cc2O)[C@@H](O)[C@@H]1O [Hyg A, Hygromycin A]
F. nucleatum nucleatum; strain 25586 (first column)
  zone of inhibition at 10 µg/disc: 20 mm
F. nucleatum nucleatum; strain 25586 (second column so headed), Hyg A 5 μg per disc
  zone of inhibition at 5 µg/disc: 25.7 mm
F. nucleatum nucleatum; strain 25586 (second column so headed)
  zone of inhibition at 10 µg/disc: 30 mm
F. nucleatum nucleatum; 42 mm = assigned maximum
  zone of inhibition at 20 µg/disc: 42 mm
  zone of inhibition at 40 µg/disc: 42 mm
F. nucleatum nucleatum
  zone of inhibition at 20 µg/disc: 26 mm
  zone of inhibition at 40 µg/disc: 30 mm
[1]; strain 2_1_31 EAV015
  zone of inhibition at 5 µg/disc: 20.3 mm
  zone of inhibition at 10 µg/disc: 23.3 mm
  zone of inhibition at 20 µg/disc: 25.3 mm
  zone of inhibition at 40 µg/disc: 30 mm
[1]; strain 3_1_7B
  zone of inhibition at 5 µg/disc: 29.3 mm
  zone of inhibition at 10 µg/disc: 34.3 mm
  zone of inhibition at 20 µg/disc: 36 mm
  zone of inhibition at 40 µg/disc: 40 mm
[1]; strain 209B32
  zone of inhibition at 5 µg/disc: 22 mm
  zone of inhibition at 10 µg/disc: 25.7 mm
  zone of inhibition at 20 µg/disc: 30.7 mm
  zone of inhibition at 40 µg/disc: 35 mm
F. nucleatum polymorphum; strain 13_3C EAV005
  zone of inhibition at 5 µg/disc: 16.7 mm
  zone of inhibition at 10 µg/disc: 20 mm
  zone of inhibition at 20 µg/disc: 25.7 mm
  zone of inhibition at 40 µg/disc: 27.3 mm
F. nucleatum polymorphum; strain 203L28
  zone of inhibition at 5 µg/disc: 20.3 mm
  zone of inhibition at 10 µg/disc: 23 mm
  zone of inhibition at 20 µg/disc: 24 mm
  zone of inhibition at 40 µg/disc: 30.3 mm
F. nucleatum polymorphum; strain 203L29
  zone of inhibition at 5 µg/disc: 18.3 mm
  zone of inhibition at 10 µg/disc: 20.3 mm
  zone of inhibition at 20 µg/disc: 24 mm
  zone of inhibition at 40 µg/disc: 26.7 mm
[2]; Hyg A 0.03 μg/ml
  Mean T47 copies/μL, Average: 2768 copies/μL
[2]; Hyg A 0.06 μg/ml
  Mean T47 copies/μL, Average: 916 copies/μL
  Mean T47 copies/μL, experimental values: 713 copies/μL and 883 copies/μL and 851 copies/μL and 1260 copies/μL
[2]; Hyg A 0.12 μg/ml
  Mean T47 copies/μL, Average: 737 copies/μL
  Mean T47 copies/μL, experimental values: 372 copies/μL and 629 copies/μL and 710 copies/μL and 787 copies/μL and 926 copies/μL and 951 copies/μL and 965 copies/μL and 552 copies/μL
[2]; Hyg A 0.24 μg/ml
  Mean T47 copies/μL, Average: 516 copies/μL
  Mean T47 copies/μL, experimental values: 510 copies/μL and 491 copies/μL and 572 copies/μL and 587 copies/μL and 564 copies/μL and 600 copies/μL and 441 copies/μL and 360 copies/μL
[2]; Hyg A 0.48 μg/ml
  Mean T47 copies/μL, Average: 426 copies/μL
  Mean T47 copies/μL, experimental values: 327 copies/μL and 435 copies/μL and 503 copies/μL and 508 copies/μL and 487 copies/μL and 453 copies/μL and 342 copies/μL and 352 copies/μL
[2]; Hyg A 0.96 μg/ml
  Mean T47 copies/μL, Average: 319 copies/μL
  Mean T47 copies/μL, experimental values: 150 copies/μL and 307 copies/μL and 435 copies/μL and 361 copies/μL and 405 copies/μL and 327 copies/μL and 299 copies/μL and 268 copies/μL
[2]; Hyg A 1.92 μg/ml
  Mean T47 copies/μL, Average: 323 copies/μL
[2]; Hyg A 3.84 μg/ml
  Mean T47 copies/μL, Average: 275 copies/μL
[2]; SS14 strain, ANOVA p<0.05
  lowest concentration effective against growth (no significant difference to higher concentrations): 1.92 µg/mL
SF1Ep cells
  toxicity to SF1Ep cells (WST-1): not toxic
